Test results taken from US10214762B2, “Cell differentiation devices and methods” (GEORGIA TECH RESEARCH CORPORATION, priority 2014, dated 2019).

Columns and labels:
[1] = tested on: E. Coli strain (ATCC 43888); test: three-channel, six-chamber microfluidic chemotaxis assay; assay type: cell-based, Escherichia coli
Experimental: PBS, Tris and LB were autoclaved before use. E Coli strain (ATCC 43888) was obtained from Fisher Scientific (Pittsburgh, Pa.). All cultures were grown in 10 mL of LB incubated at 37° C. for approximately 4 hours until the optical density of sample at wavelength of 600 nm reached 0.8. Optical density at 600 nm was measured for cell culture quantification.
An exemplary device described and depicted herein consists of a center channel that delivers a bacteria sample from a small reservoir to the central interaction region, where the channel is perpendicularly connected to six chambers. […] These channels serve as a source for generating a chemical gradient in the chambers. A nitrocellulose membrane (Millipore type GSTF) with a 0.22 μm pore size serves as a porous medium that separates the side channels from the chambers while allowing chemicals to diffuse through to the chambers. The pore size of 0.22 μm was selected as an exemplary pore size to ensure chemical axial flow through the porous nitrocellulose substrate, while prohibiting the passage of the cells or analyte to be analyzed through the porous substrate. Other pore sizes may be utilized depending on the type of assay and cells or analyte to be analyzed are contemplated herein.
The same volume of buffer saline was taken back through the filter into the syringe; suspending the cells in the buffer saline medium. This process was repeated three times to ensure the complete exchange of growth medium with buffer saline. The bacterial motility was not affected.
The microfluidic device was prepared as follow. The top glass assembly was properly cleaned and reused for many experiments, while the membrane and the bottom glass were renewed for each experiment. Acetone, isopropanol, and DI water were used to effectively clean the top glass and reservoirs. The membrane layer was soaked entirely in buffer solution for 30 min before use to ensure the removal of all air bubbles. The soaked membrane was then aligned with the inlet/outlet ports on the top glass and sandwiched between the top glass and another glass slide using 6 small stainless steel clips that provide constant and consistent pressure over the entire membrane area, as shown in FIG. 3.
After the device assembly, the input reservoirs were filled with buffer and the output reservoirs were vacuumed for a few seconds, the strong resulting flow expels all possible bubbles from the microfluidic system. The channels were inspected under microscope before conducting tests. All the experiments were conducted at least for three times to determine reproducibility. The bacterial chemotaxis experiments were conducted at an ambient temperature of 36° C.
Chemotactic response of cells to a chemical gradient was tested in another set of experiments. […]

E Coli [2] = details: agarose gel diffusive medium; cited from earlier work
E Coli [3] = details: about 20 mM aspartic acid; cited from earlier work
[4] = capillary assay; cited from earlier work

Row | SMILES | ratio of bacteria count in the buffer chambers to the repellent side chambers ([1]; 0.5 mM NiCl2 as repellent, Tris Buffered Saline) | motility of the cells after introducing the repellent ([1]; due to an increase in tumbling frequency) | concentration generating the maximum chemotactic response (E Coli [2]) [mM] | chemotactic index (peak response) (E Coli [3]) | chemotaxis index (IC) ([1]; 0.5 mM aspartic acid in PBS buffer as attractant, cells in attractant chambers vs buffer side chambers, about 30 min) | aspartic acid concentration giving a more significant chemotactic response ([1]; different aspartic acid concentrations tried) [mM] | peak concentration for chemotaxis [4]
1 | [Cl][Ni][Cl] [NiCl2, nickel chloride] | more than 8 times | reduced to some degree | – | – | – | – | –
2 | N[C@@H](CC(=O)O)C(=O)O [aspartic acid, L-aspartic acid] | – | – | 0.5 | 1.74 | 4 | 0.5 | about 10 mM
